Measurements reported in patent US20200093128A1, “ACIDULATED SURFACTANT COMPOSITIONS AND METHODS OF REDUCING MICROBIAL LOAD” (The United States of America, as represented by the …, priority 2018, published 2020).
Read-outs that look alike come from different tables or passages of the source. Marks after values point to notes of the source that are not given here.

What was measured:
EHEC & Salmonella = conditions: Lettuce, Cl 200 PPM, cited from earlier work
L. monocytogenes [1] = conditions: cited from earlier work
L. monocytogenes [2] = format: cell-based, Listeria monocytogenes; conditions: dip-inoculated grape tomatoes, 100 ml wash, 2 min
Excerpt: (§1) This example illustrates an embodiment of the effectiveness of the inventive composition. […]. The four most acid-resistant strains out of the fourteen were selected for use in this study. These four strains consisted of cattle isolate #'s 199, 758, 851, and 859, provided by Dr. T. G. Nagaraja (Distinguished Microbiology Professor, Kansas State University, Department of Veterinary Medicine). Five outbreak strains of Listeria monocytogenes were used, including L499, L502, L008, L2624, and L2625, provided by Dr. Bassam Annous (USDA-ARS-ERRC). Four serovars of S. enterica (Salmonella Newport H1275 (ERRC culture collection)), St. Paul 02-517-1 (cantaloupe outbreak), Stanley H0558 (CDC stool sample, 1995 sprout outbreak), and Montevideo G4639 (1993 tomato outbreak)) were also utilized. All isolates (except for the L. monocytogenes outbreak strains) were selected for spontaneous mutants resistant to 100 ppm of the antibiotic compound nalidixic acid (L. monocytogenes is naturally resistant to 100 ppm nalidixic acid and so was plated on media containing 100 ppm nalidixic acid without need for selection of spontaneous mutants). Isolates were individually incubated for 24 h at 37° C. in 10 mL of Tryptic Soy Broth (Difco, Sparks, Md.)+100 ppm nalidixic acid (TSBN), as an antimicrobial marker and to preclude potential contamination on plates. […]

EHEC = conditions: cited from earlier work
Salmonella [3] = conditions: Parsley, Cl 100 PPM, 5 min, Lapidot et al. (2006); cited from earlier work
[4] = test system: Salmonella, E. coli, Listeria monocytogenes, coliforms or aerobic mesophilic bacteria; experiment: Previous studies: produce treated with NaClO, summary of Table 1; format: cell-based; conditions: Table 1 studies, average 154.2 ppm free chlorine, average treatment time 5.42 min
E. coli O157:H7 [5] = experiment: BS EN 1276 test for sanitizer efficacy of NaClO; format: cell-based; conditions: 0.03% bovine serum, 5 min, 22±1° C.
Excerpt: (§2) This example illustrates an embodiment of the effectiveness of the inventive composition. […]. The four most acid-resistant strains out of the fourteen were selected for use in this study. These four strains consisted of cattle isolate #'s 199, 758, 851, and 859, provided by Dr. T. G. Nagaraja (Distinguished Microbiology Professor, Kansas State University, Department of Veterinary Medicine). Five outbreak strains of Listeria monocytogenes were used, including L499, L502, L008, L2624, and L2625, provided by Dr. Bassam Annous (USDA-ARS-ERRC). Four serovars of S. enterica (Salmonella Newport H1275 (ERRC culture collection)), St. Paul 02-517-1 (cantaloupe outbreak), Stanley H0558 (CDC stool sample, 1995 sprout outbreak), and Montevideo G4639 (1993 tomato outbreak)) were also utilized. All isolates (except for the L. monocytogenes outbreak strains) were selected for spontaneous mutants resistant to 100 ppm of the antibiotic compound nalidixic acid (L. monocytogenes is naturally resistant to 100 ppm nalidixic acid and so was plated on media containing 100 ppm nalidixic acid without need for selection of spontaneous mutants). Isolates were individually incubated for 24 h at 37° C. in 10 mL of Tryptic Soy Broth (Difco, Sparks, Md.)+100 ppm nalidixic acid (TSBN), as an antimicrobial marker and to preclude potential contamination on plates. Suspensions were centrifuged at 1980×g for 10 min, and resuspended in 5 ml of sterile deionized water and vortexed vigorously for 3 minutes. All strains of each individual species of bacteria were composited in a single sterile 500 mL beaker for inoculation of grape tomatoes.
(§3) L. monocytogenes was plated on Thermo Scientific™ Brilliance™ Listeria Agar (BLA, ThermoFisher Scientific, Fairlawn, N.J.)+100 ppm nalidixic acid without the addition of BLA antimicrobial supplements+0.1% sodium pyruvate (to aid in recovering injured cells) (see e.g., Gurtler, J. B. & L. R. Beuchat, (2005) Appl. Environ. Microbiol. 71:7661-7669; Gurtler, J. B. & Kornacki, J. L. (2009) Lett. Appl. Microbiol. 49:503-509; Wesche, A. M., et al. (2009) J. Food Prot. 72, 1121-1138). Salmonella was plated on tryptic soy agar (Difco)+100 mg/L nalidixic acid+0.1% sodium pyruvate+80 mg/L X-α-Gal (5-Bromo-4-Chloro-3-indolyl-α-D-galactopyranoside) (Research Products Intl., Mt. Prospect, Ill.)+100 mg/L Isopropyl-β-D-thiogalactopyranoside (IPTG, Fisher Scientific). X-α-Gal induces a green color change by salmonellae colonies. E. coli O157:H7 was plated tryptic soy agar (Difco)+100 mg/L nalidixic acid+0.1% sodium pyruvate+175 mg/L red/salmon-Gal (6-Chloro-3-indolyl-β-D-galactopyranoside)+100 mg/L IPTG. Red/salmon-Gal induces a pink color change by E. coli colonies.
(§4) BS EN 1276 Test for Sanitizer Efficacy of Sodium Hypochlorite (NaClO). The British Standard, European Normalization Method 1276 for sanitizers was chosen to evaluate the efficacy low level NaClO. The level of free chlorine ranged from 10 to 48 ppm free chlorine, as tested with the LaMotte Model CL-BR 3624 titration kit (Chestertown, Md.). The BS EN 1276 method as well as the French AFNOR NFT 72170 method has been traditionally used to evaluate sanitizer effectiveness (see e.g., Jacquet, C., and Reynaud, A. (1994) Int. J. Food Microbiol. 22:79-83; Taylor, J. H., et al. (1999) Int. J. Appl. Microbiol. 87:718-725). The BS EN 1276 method involves adding 0.03% bovine albumin to represent clean conditions and 0.3% albumin for dirty conditions. Briefly, 1 ml of either 0.03% or 0.3% bovine serum was added to a sterile 15 ml test tube, followed by 1 ml of the ca. 9 log CFU/ml test solution of each bacterial composite. The suspension was permitted to sit for 2 min and then 8 ml of an appropriately diluted NaClO solution was added to the 2 ml of bacteria-bovine solution suspension where concentrations of sanitizer solution were adjusted to mathematically account for the 2:8 dilution with the pathogen suspension at 10 ppm, 16 ppm, and 48 ppm. All tests were conducted at 22±1° C. […]

Listeria Monocytogenes = experiment: BS EN 1276 test for sanitizer efficacy of NaClO; format: cell-based; conditions: 0.03% bovine serum, 5 min, 22±1° C.
Excerpt: as §2, §3, §4

Total Coliforms [6] = conditions: Lettuce, Cl 200 PPM, 10 min, Nascimento et al. (2003); cited from earlier work
Total Coliforms [7] = conditions: watercress, 200 ppm NaOCl, pH-unadjusted; cited from earlier work
[8] = test system: Salmonella and E. coli O157:H7; conditions: tomato stem scars, 200 ppm free chlorine, pH-unadjusted; cited from earlier work
[9] = test system: S. enterica, L. monocytogenes or E. coli O157:H7; experiment: BS EN 1276 chlorine test, summary over the three pathogens; format: cell-based; conditions: 48 ppm chlorine, 5 min, 3% bovine albumin (dirty conditions)
pH of wash solution = format: physicochemical; conditions: wash solutions of the grape tomato test (Table 4)
Salmonella [10] = experiment: BS EN 1276 test for sanitizer efficacy of NaClO; format: cell-based, S. enterica; conditions: 0.03% bovine serum, 5 min, 22±1° C.
Excerpt: as §2, with “tomatoes. […]” for “tomatoes.”

Listeria innocua = conditions: Lettuce, Cl 10 PPM, 5.0 min, Francis and O'Beime (2002); cited from earlier work
Salmonella [11] = format: cell-based, S. enterica; conditions: dip-inoculated grape tomatoes, 100 ml wash, 2 min
Excerpt: as §1

E. coli O157:H7 [12] = format: cell-based; conditions: dip-inoculated grape tomatoes, 100 ml wash, 2 min
Excerpt: as §1

[13] = test system: Salmonella and E. coli O157:H7; conditions: strawberries, 6.44 pH-adjusted free chlorine, 198 ppm; cited from earlier work
Aerobic Bacteria = conditions: cited from earlier work
E. coli = conditions: Cl 100 PPM, 10.0 min, cited from earlier work

OCl [NaClO, sodium hypochlorite]
Inactivation (EHEC & Salmonella; 1.0 min, Koseki et al. (2003)): ca. 1.0 Log CFU
Inactivation (EHEC & Salmonella; 10.0 min, Kondo et al. (2006)): 1.2 Log CFU
Inactivation (L. monocytogenes [1]; Lettuce (4° C.), Cl 200 PPM, 10.0 min, Zhang & Farber (1996)): 1.3 Log CFU
Inactivation (L. monocytogenes [1]; Lettuce, Cl 20 PPM, 0.5 min, Li et al. (2002)): 1.2 Log CFU
Inactivation (L. monocytogenes [1]; Lettuce, Cl 100 PPM, 1.0 min, Hellstrom et al. (2006)): 0.7 Log CFU
Inactivation (L. monocytogenes [1]; Lettuce, Cl 100 PPM, 5.0 min, Akbas and Oimez (2007)): 1.7 Log CFU
reduction, L. monocytogenes (L. monocytogenes [2]): 3.16 ± 0.61 B log CFU/g
Inactivation (EHEC; Lettuce & Spinach, Cl 600 PPM, 3.0 min, Niemera, 2007): 0.5 Log CFU
Inactivation (EHEC; Lettuce, Cl 20 PPM, 1.0 min, Li et al. (2001)): 1.1 Log CFU
Inactivation (Salmonella [3]): 1.7 Log CFU
average log reduction in previous studies [4]: 1.24 log CFU
log CFU/mL reduction (E. coli O157:H7 [5]; 10 ppm free chlorine): 0.64 B^a ± 0.32^b log CFU/mL
log CFU/mL reduction (E. coli O157:H7 [5]; 16 ppm free chlorine): 1.79 A ± 0.21 log CFU/mL
log CFU/mL reduction (E. coli O157:H7 [5]; 48 ppm free chlorine): 0.33 ± 0.47^c log CFU/mL
log CFU/mL reduction (Listeria Monocytogenes; 10 ppm free chlorine): 1.22 B ± 0.19 log CFU/mL
log CFU/mL reduction (Listeria Monocytogenes; 16 ppm free chlorine): 2.77 A ± 0.36 log CFU/mL
log CFU/mL reduction (Listeria Monocytogenes; 48 ppm free chlorine): 0.53 ± 0.21 log CFU/mL
Inactivation (Total Coliforms [6]): <2.0 Log CFU
inactivation of pathogens (Total Coliforms [7]): 1.1 log
inactivation of pathogens [8]: 1.53 log
inactivated log [9]: less than 0.76 log
pH Values (pH of wash solution): 9.88
log CFU/mL reduction (Salmonella [10]; 10 ppm free chlorine): 1.20 B ± 0.10 log CFU/mL
log CFU/mL reduction (Salmonella [10]; 16 ppm free chlorine): 2.72 A ± 0.53 log CFU/mL
log CFU/mL reduction (Salmonella [10]; 48 ppm free chlorine): 0.25 ± 0.25 log CFU/mL
Inactivation (Listeria innocua): 1.5 Log CFU
reduction, Salmonella (Salmonella [11]): 2.60 ± 0.25 B log CFU/g
reduction, E. coli O157:H7 (E. coli O157:H7 [12]): 2.92 ± 0.38 BC log CFU/g
inactivated log CFU [13]: 1.86 log CFU
Inactivation (Aerobic Bacteria; Diced Tomato, Cl 200 PPM, 0.5 min, Simmons et al. (2006)): 0.00 Log CFU
Inactivation (Aerobic Bacteria; Lettuce, Cl 75 PPM, 5 min, Lu et al. (2007)): 2.0 Log CFU
Inactivation (Aerobic Bacteria; Lettuce, Cl 150 PPM, 10 min, Koseki et al. (2001)): 2.0 Log CFU
Inactivation (Aerobic Bacteria; Lettuce, Cl 200 PPM, 0.5 min, Simmons et al. (2006)): 1.30 Log CFU
Inactivation (Aerobic Bacteria; Lettuce, Cl 200 PPM, 10.0 min, Kondo et al. (2006)): 0.9 Log CFU
Inactivation (E. coli; Cabbage/Parsley, Seymot et al. (2002)): ca 1.45 Log CFU
Inactivation (E. coli; Lettuce, Seymor et al. 2002): 0.72 Log CFU
